Legend:
[1] = tested on: CuZnSOD; assay: Protection of CuZnSOD from inactivation by peroxynitrite using peroxynitrite decomposition catalysts; assay type: biochemical, bovine; conditions: Fe(III)TMPyP 0.5 and 1.0 uM, Fe(III)TMPS 1.0 and 5.0 uM; peroxynitrite 0-100 uM
Procedure: Assay solutions were prepared as described above except for the addition of various of peroxynitrite decomposition catalyst. The final solution volume was maintained at 10 mL. Thus, to the assay solutions Fe(III)TMPyP (0.5 and 1.0 uM final concentration) and Fe(III)TMPS (1.0 and 5.0 uM final concentration) was added. The solution were then treated with various amounts of peroxynitrite such that the final concentrations of 0,25, 50, 75 and 100 uM were achieved. Following treatment with peroxynitrite EDTA was added to a final concentration of 250 uM. The solutions were then assayed for SOD activity.

[2] = tested on: rat jejunum; assay: Intestinal vascular permeability (radiolabelled albumin leakage) after endotoxin (LPS); assay type: in vivo; conditions: 30 mg/kg, i.v, 3 h after LPS; determined 1 h later
Procedure: FIG. 10 . Effects of FeTMPS, FeTMPyP or ZnTMPyP (30 mg/kg, i.v bolus) administered 3 h after challenge with E. coli lipopolysaccharide (LPS, 3 mg/kg, i.v bolus) on the increase in leakage of radio-labelled albumin (plasma extravasation, μl/g tissue) observed 1 h later (e.g 4 h after LPS challenge) in the rat jejunum. Results are shown as mean±s.e.m of 4-8 rats.
Intestinal vascular permeability was determined as the leakage into the jejunal tissue of [^125 I]-labelled bovine serum albumin ([^125 ]-BSA) administered intravenously (0.5 ml; 0.5 μCi) together with either LPS (3 mg/kg, serotype O111:B4) or isotonic saline. At 4 h after LPS administration, segments of jejunal tissue were ligated and removed. The intestinal tissues were rapidly washed, blotted dry and weighed. Blood (0.5 ml) was collected into tubes containing tri-sodium citrate (0.318% final concentration) and plasma prepared by centrifugation (10,000 g×10 min). The {^125 I]-BSA content in segments of whole tissue and in aliquots of plasma (100 μl) was determined in a gamma counter. The total content of plasma in the intestinal tissues was expressed as μl/g tissue. Changes in intravascular volume in the intestinal tissue was determined in an additional group of rats by administering ([^125 I]-BSA) intravenously 2 min before removal of the jejunum. The tissue and plasma content of radiolabel was determined and intravascular volume expressed as μl/g tissue. This value was substracted from that obtained in the plasma leakage studies to obtain a measure of the intestinal plasma albumin leakage. After LPS administration (4 h), there was a significant (P<0.01) increase in the plasma leakage (from 77±10 to 224±18 μl/g tissue, n=8).

[3] = tested on: human aortic endothelial cells; assay: Endothelial cell injury assay (51Cr release), neutrophil-mediated; assay type: cell-based; conditions: 2 h; TNF/C5a-activated neutrophils; FIG. 7
Procedure: Peroxynitrite catalyst, Fe(TMPyP), was added to neutrophils in the cell injury assay immediately before activation by TNF/C5a. After 2 h, the amount of specific cell injury was assessed by the amount of radiolabel released into the medium. Values represent the average of three replicas +/-SEM. *p<0.01 vs. 0 uM control by Dunnett's t Test.
[…]: Human recombinant tumor necrosis factor-alpha (TNF-a) was obtained from Genzyme Corporation, Cambridge, MA. Human recombinant complement C5a and L-arginine (L-arg) was purchased from Sigma Chemical Company, St. Louis, Mo. Authentic peroxynitrite in 50 mM NaOH was prepared as described above.
Preparation of Neutrophils: Human neutrophils were isolated from peripheral blood of healthy donors (Look, D. C., Rapp, S. R., Keller, B. T., and Holtzman, M. J. Am. J. Physiol., 263, L79-L87 [1992]). […]
Endothelial Cell Injury Assays: The cytotoxic effects of stimulated neutrophils or peroxynitrite on endothelial cells was determined using a ^51 Cr-release assay as described by Moldow (Moldow et. al. Methods Enzymol., 105, 378-385, [1984]). […]
^51 Cr release was determined by aspiration of the supernatant from each well (soluble fraction). […] Both fractions were analyzed by gamma scintillation spectrometry. Results were expressed as percent ^51 Cr release as follows: % release=cpm (soluble+nonadherent/total cpm per well)×100. […]

Structure (SMILES)	protection of CuZnSOD against inactivation by peroxynitrite [1]	radiolabelled albumin leakage [2]	inhibition of neutrophil-mediated injury to endothelial cells [3]
CC(=O)[O-].Cc1c(-c2c3nc(c(-c4c(C)c(S(=O)(=O)[O-])c(C)c(S(=O)(=O)[O-])c4C)c4ccc([n-]4)c(-c4c(C)c(S(=O)(=O)[O-])c(C)c(S(=O)(=O)[O-])c4C)c4nc(c(-c5c(C)c(S(=O)(=O)[O-])c(C)c(S(=O)(=O)[O-])c5C)c5ccc2[n-]5)C=C4)C=C3)c(C)c(S(=O)(=O)[O-])c(C)c1S(=O)(=O)[O-].[Fe+3].[Na+].[Na+].[Na+].[Na+].[Na+].[Na+].[Na+].[Na+] [Fe(III)TMPS, Acetato-5,10,15,20-tetrakis(3,5-disulfonatomesityl)porphyrin Iron (III) octasodium salt]	concentration dependant protection of CuZnSOD against inactivation by peroxynitrite	caused a reduction in radiolabelled albumin leakage	–
CC(=O)[O-].C[n+]1ccc(-c2c3nc(c(-c4cc[n+](C)cc4)c4ccc([n-]4)c(-c4cc[n+](C)cc4)c4nc(c(-c5cc[n+](C)cc5)c5ccc2[n-]5)C=C4)C=C3)cc1.Cc1ccc(S(=O)(=O)[O-])cc1.Cc1ccc(S(=O)(=O)[O-])cc1.Cc1ccc(S(=O)(=O)[O-])cc1.Cc1ccc(S(=O)(=O)[O-])cc1.[Fe+3] [Fe(III)TMPyP, Acetato (5,10,15,20-tetrakis(N-methyl-4-pyridyl)porphinato) iron (III) tetra-tosylate]	concentration dependant protection of CuZnSOD against inactivation by peroxynitrite	caused a reduction in radiolabelled albumin leakage	Inhibition of neutrophil-mediated injury to human aortic endothelial cells
